The text below walks through data of ChEMBL document CHEMBL5465560, “Selectivity Literature for EUbOPEN Chemogenomic Library” (2024).

Assay [1] has as its target Cyclin-dependent kinase-like 1 (Homo sapiens) (UniProt Q00532). Nature of the assay: Selectivity interaction (KinomeScan (DiscoverX)) EUB0000229b CDKL1. Conditions: at 10 µM.
The target of assay [2] is Macrophage-stimulating protein receptor (Homo sapiens, UniProt Q04912). The assay can be described thus: Selectivity interaction (Kinase screening (Nanosyn)) EUB0000604a MST1R.
The target in assay [3] is Cyclin-dependent kinase 2 (Homo sapiens, UniProt P24941). The conditions noted are these: at 10 µM.
The target of assay [4] is Serine/threonine-protein kinase Nek6 (Homo sapiens) (UniProt Q9HC98). Nature of the assay: Selectivity interaction (KinomeScan (DiscoverX)) EUB0000695a NEK6. Conditions: at 100 nM.
The target in assay [5] is T1, Dual serine/threonine and tyrosine protein kinase (Homo sapiens) (UniProt Q6XUX3).
T1 sequence (whole entry): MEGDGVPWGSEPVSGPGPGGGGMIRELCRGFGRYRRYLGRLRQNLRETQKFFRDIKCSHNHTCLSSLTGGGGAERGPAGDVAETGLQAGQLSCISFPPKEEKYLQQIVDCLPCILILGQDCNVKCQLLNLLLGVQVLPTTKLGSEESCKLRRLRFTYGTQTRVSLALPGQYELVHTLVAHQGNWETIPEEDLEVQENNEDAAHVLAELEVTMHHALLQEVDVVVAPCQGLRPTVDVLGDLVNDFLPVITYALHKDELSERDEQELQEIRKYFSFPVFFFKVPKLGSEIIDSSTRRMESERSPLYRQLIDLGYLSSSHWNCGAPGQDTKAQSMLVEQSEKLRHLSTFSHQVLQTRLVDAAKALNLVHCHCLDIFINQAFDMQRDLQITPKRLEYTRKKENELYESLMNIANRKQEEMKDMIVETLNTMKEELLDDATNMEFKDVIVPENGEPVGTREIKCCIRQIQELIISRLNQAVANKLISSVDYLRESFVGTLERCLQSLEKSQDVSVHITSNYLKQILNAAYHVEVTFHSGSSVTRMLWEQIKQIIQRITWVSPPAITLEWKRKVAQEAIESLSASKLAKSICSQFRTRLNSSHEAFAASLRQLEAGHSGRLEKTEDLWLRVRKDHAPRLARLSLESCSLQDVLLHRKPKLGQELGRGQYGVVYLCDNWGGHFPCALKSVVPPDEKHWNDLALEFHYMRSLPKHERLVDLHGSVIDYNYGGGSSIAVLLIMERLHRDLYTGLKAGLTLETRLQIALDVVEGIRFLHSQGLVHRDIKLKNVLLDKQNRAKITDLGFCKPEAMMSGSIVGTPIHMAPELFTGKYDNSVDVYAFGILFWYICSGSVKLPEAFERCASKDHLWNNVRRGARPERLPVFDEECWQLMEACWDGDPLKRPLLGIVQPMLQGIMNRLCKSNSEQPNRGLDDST
The assay can be described thus: Selectivity interaction (ProQinase) EUB0000171b DSTYK.

The target in assay [6] is T2, Serine/threonine-protein kinase TAO2 (Homo sapiens) (UniProt Q9UL54).
T2 sequence (whole entry): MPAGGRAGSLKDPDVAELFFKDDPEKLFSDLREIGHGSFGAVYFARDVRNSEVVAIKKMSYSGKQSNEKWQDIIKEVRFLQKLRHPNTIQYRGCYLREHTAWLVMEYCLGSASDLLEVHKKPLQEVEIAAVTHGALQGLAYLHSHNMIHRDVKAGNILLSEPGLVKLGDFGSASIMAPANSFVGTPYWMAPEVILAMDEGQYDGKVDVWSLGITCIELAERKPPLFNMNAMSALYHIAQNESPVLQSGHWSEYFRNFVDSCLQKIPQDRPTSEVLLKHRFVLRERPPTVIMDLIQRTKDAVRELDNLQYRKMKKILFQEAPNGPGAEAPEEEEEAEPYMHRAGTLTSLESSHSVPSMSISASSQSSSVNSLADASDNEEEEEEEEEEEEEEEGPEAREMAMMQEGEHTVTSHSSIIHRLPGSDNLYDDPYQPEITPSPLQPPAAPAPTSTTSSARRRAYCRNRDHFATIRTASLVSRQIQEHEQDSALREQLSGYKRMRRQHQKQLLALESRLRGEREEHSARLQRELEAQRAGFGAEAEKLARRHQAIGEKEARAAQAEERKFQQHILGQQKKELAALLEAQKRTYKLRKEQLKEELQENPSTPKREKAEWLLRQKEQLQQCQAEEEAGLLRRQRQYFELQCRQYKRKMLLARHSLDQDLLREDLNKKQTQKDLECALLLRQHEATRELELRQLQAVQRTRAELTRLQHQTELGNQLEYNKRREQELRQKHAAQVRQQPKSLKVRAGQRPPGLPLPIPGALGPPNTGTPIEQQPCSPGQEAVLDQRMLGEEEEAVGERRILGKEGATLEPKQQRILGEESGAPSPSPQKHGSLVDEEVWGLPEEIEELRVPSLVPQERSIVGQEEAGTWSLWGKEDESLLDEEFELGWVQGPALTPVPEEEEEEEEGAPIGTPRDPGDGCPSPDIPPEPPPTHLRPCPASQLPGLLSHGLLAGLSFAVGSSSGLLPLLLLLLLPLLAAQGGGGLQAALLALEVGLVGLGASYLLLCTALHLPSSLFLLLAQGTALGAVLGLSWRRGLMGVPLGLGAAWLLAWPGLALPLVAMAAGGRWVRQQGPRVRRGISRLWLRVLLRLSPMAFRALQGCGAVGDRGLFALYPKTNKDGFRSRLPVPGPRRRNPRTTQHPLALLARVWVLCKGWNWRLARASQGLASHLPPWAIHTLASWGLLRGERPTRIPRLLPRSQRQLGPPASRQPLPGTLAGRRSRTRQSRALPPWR
The assay can be described thus: Selectivity interaction (KinomeScan (DiscoverX)) EUB0000618a TAOK2. The conditions noted are these: at 10 µM.

In assay [7] the target is Serine/threonine-protein kinase SIK1 (Homo sapiens) (UniProt P57059). Nature of the assay: Selectivity interaction (Upstate Kinase Profiler service (Millipore)) EUB0000056c SIK1. The conditions noted are these: at 1 µM.

Each structure is given as a SMILES string.

Cyclin-dependent kinase-like 1 (Homo sapiens), sequence (Q00532 whole entry): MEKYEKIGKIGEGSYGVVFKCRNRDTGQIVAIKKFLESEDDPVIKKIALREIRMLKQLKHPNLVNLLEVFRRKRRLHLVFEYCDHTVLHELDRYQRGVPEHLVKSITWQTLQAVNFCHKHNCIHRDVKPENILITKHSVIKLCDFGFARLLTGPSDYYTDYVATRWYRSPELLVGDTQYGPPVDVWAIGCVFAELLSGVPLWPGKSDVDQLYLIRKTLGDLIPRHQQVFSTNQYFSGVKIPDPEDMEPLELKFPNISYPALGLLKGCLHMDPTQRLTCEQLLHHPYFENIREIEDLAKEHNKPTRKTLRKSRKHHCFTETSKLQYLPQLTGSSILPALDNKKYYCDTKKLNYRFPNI
Serine/threonine-protein kinase SIK1 (Homo sapiens), sequence (P57059 whole entry): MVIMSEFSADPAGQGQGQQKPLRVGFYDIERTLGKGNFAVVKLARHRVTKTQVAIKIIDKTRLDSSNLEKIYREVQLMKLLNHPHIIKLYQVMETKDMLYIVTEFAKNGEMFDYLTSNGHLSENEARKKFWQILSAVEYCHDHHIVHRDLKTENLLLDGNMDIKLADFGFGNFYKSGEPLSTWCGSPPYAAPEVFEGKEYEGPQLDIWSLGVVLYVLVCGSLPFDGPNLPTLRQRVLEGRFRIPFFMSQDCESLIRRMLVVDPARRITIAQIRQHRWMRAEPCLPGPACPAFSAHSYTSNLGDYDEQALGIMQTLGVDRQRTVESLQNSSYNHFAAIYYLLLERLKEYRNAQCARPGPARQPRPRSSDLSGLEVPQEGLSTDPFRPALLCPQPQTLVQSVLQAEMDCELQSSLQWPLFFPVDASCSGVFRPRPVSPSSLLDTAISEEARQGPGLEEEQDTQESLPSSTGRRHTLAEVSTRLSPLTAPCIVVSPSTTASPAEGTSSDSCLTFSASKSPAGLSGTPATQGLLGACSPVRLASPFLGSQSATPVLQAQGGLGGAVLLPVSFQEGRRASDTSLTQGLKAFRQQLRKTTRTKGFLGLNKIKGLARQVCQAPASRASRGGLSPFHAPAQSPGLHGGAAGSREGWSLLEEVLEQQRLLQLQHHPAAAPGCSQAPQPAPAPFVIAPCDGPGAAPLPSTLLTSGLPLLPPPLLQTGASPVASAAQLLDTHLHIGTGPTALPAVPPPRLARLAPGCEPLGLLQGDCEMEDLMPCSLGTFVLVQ
Macrophage-stimulating protein receptor, sequence (Q04912 25-304 limits assumed): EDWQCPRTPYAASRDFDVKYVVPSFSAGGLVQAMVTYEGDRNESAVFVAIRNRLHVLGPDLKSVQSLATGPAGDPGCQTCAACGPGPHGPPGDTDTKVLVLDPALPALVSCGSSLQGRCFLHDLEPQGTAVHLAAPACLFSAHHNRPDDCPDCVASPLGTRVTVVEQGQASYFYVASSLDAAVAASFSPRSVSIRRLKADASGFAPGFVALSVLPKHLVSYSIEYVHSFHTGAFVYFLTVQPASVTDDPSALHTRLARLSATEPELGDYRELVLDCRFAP
Macrophage-stimulating protein receptor, sequence (Q04912 310-1400 limits assumed): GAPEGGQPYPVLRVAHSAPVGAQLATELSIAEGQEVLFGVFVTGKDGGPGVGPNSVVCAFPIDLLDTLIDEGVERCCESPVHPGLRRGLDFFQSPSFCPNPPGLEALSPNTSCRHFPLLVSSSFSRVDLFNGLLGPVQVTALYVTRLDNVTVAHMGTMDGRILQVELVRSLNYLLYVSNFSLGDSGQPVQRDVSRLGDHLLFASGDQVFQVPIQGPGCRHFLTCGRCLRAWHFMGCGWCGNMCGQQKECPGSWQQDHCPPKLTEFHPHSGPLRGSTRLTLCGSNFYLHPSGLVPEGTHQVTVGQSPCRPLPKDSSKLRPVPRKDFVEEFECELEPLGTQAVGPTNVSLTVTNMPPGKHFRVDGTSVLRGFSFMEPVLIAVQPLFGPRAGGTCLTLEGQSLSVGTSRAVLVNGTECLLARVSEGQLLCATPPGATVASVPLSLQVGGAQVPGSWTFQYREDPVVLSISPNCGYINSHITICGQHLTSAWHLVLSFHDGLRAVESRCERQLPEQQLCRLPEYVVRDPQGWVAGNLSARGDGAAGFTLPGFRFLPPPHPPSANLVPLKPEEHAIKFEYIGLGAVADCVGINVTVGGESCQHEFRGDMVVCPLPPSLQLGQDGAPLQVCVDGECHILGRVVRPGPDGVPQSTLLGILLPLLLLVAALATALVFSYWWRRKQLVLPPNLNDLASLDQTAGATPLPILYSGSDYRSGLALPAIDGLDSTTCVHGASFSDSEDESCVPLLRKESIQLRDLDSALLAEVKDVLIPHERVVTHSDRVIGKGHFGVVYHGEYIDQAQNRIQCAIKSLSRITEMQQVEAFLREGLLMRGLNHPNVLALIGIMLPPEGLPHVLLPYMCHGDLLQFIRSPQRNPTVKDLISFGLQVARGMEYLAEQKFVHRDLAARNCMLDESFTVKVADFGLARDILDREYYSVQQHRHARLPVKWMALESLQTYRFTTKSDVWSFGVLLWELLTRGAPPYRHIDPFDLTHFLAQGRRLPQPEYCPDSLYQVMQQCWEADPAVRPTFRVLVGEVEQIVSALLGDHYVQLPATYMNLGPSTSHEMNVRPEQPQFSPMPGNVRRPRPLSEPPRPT
Serine/threonine-protein kinase Nek6 (Homo sapiens), sequence (Q9HC98 whole entry): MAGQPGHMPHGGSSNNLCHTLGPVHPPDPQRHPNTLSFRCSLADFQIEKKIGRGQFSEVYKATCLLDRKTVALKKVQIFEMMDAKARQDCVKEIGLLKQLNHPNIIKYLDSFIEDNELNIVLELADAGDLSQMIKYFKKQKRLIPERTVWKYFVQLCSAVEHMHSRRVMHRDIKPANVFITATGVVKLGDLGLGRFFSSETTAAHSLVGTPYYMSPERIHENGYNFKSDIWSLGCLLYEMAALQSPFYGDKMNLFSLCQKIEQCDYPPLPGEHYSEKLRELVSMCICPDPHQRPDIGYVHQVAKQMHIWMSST

With `COc1cc(N(C)c2ccnc3ccc(C(F)(F)F)cc23)cc(OC)c1OC`, the % binding in assay [1] worked out at 70%.

`Cc1cnc(Nc2ccc(F)cc2Cl)nc1-c1c[nH]c(C(=O)N[C@H](CO)c2cccc(Cl)c2)c1` came in with a % of inhibition in assay [2] of 1%.

`CCN(CC)CCCCNc1ncc2cc(-c3cc(OC)cc(OC)c3)c(NC(=O)NC(C)(C)C)nc2n1` came in with a % of control in assay [3] of 100%.

In assay [4], `Cc1cc(F)c(C(=O)Nc2cccc(-c3nncn3C(C)C)n2)cc1-n1cnc(C2CC2)c1` showed a % of control of 100%.

`C=CC(=O)Nc1cccc(C(=O)Nc2ccc(Nc3cc(-c4[nH]c(SC)nc4C)ccn3)cc2)c1`: the % of control in assay [5] (at 1 µM) was 90%; in assay [5] (at 5 µM), 67%. For `O[C@H]1CC[C@H](Nc2ncc3nc(Nc4c(F)cc(F)cc4F)n([C@H]4CCOC4)c3n2)CC1`, in assay [6], the % of control is 93%.

In the case of `Cc1ccc(-c2ccc3c(ccc4sc5c(c43)NC[C@@H](C)NC5=O)n2)cn1`, the % of inhibition in assay [7] is 4%.
